“And” between values parts separate entries of the source, which are not always exact repeats. Equal entries are not always repeated.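 Compound exposure: 48 hours, 5 concentrations, 96-well plates. Here, GI50 denotes the concentration required for 50% inhibition of growth.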 The source made the active and inactive calls. Cut-off read from the data, not from the text of the source: active = GI50 up to about 1.1 µM and inactive = higher.
How the values were obtained:
Assay in all cases: NCI tumour cell line growth inhibition, 48 h
OVCAR-4 = system: OVCAR-4
MOLT-4 = system: MOLT-4
CAKI-1 = system: CAKI-1
SF-539 = system: SF-539
ACHN = system: ACHN
UACC-62 = system: UACC-62
T47D = system: T47D
EKVX = system: EKVX
SK-MEL-2 = system: SK-MEL-2
MDA-MB-231 = system: MDA-MB-231
TK-10 = system: TK-10
MDA-N = system: MDA-N
CCRF-CEM = system: CCRF-CEM
SK-OV-3 = system: SK-OV-3
SNB-75 = system: SNB-75
SK-MEL-28 = system: SK-MEL-28
HT-29 = system: HT-29
SF-295 = system: SF-295
SNB-19 = system: SNB-19
RPMI-8226 = system: RPMI-8226
SR = system: SR
U-251 = system: U-251
NCI-H23 = system: NCI-H23
MCF7 = system: MCF7
OVCAR-8 = system: OVCAR-8
HCT-116 = system: HCT-116
SK-MEL-5 = system: SK-MEL-5
RXF 393 = system: RXF 393
HCT-15 = system: HCT-15
UO-31 = system: UO-31
HOP-92 = system: HOP-92
K562 = system: K562
MDA-MB-435 = system: MDA-MB-435
NCI/ADR-RES = system: NCI/ADR-RES
M14 = system: M14
HCC 2998 = system: HCC 2998
SW-620 = system: SW-620
DU-145 = system: DU-145
HL-60 = system: HL-60
A549 = system: A549
OVCAR-3 = system: OVCAR-3
UACC-257 = system: UACC-257
LOX IMVI = system: LOX IMVI
NCI-H460 = system: NCI-H460
NCI-H522 = system: NCI-H522
Malme-3M = system: Malme-3M
Hs-578T = system: Hs-578T
OVCAR-5 = system: OVCAR-5
786-0 = system: 786-0
SF-268 = system: SF-268
KM12 = system: KM12
PC-3 = system: PC-3
NCI-H226 = system: NCI-H226
IGROV-1 = system: IGROV-1
SN12C = system: SN12C
HOP-62 = system: HOP-62
COLO 205 = system: COLO 205
A498 = system: A498

Q: What does the source list for CSCCC(NCc1c(O)ccc2c(-c3ccccc3)cc(=O)oc12)C(=O)O (stereo not drawn)?
A: GI50 (OVCAR-4): > 100 µM (inactive); GI50 (MOLT-4): > 100 µM (inactive); GI50 (CAKI-1): > 100 µM (inactive); GI50 (SF-539): > 100 µM (inactive); GI50 (ACHN): > 100 µM (inactive); GI50 (UACC-62): > 100 µM (inactive); GI50 (T47D): > 100 µM (inactive); GI50 (EKVX): > 100 µM (inactive); GI50 (SK-MEL-2): > 100 µM (inactive); GI50 (MDA-MB-231): > 100 µM (inactive); GI50 (TK-10): > 100 µM (inactive); GI50 (MDA-N): > 100 µM (inactive); GI50 (CCRF-CEM): > 100 µM (inactive); GI50 (SK-OV-3): > 100 µM (inactive); GI50 (SNB-75): > 100 µM (inactive); GI50 (SK-MEL-28): > 100 µM (inactive); GI50 (HT-29): > 100 µM (inactive); GI50 (SF-295): > 100 µM (inactive); GI50 (SNB-19): > 100 µM (inactive); GI50 (RPMI-8226): > 100 µM (inactive); GI50 (SR): > 100 µM (inactive); GI50 (U-251): > 100 µM (inactive); GI50 (NCI-H23): > 100 µM (inactive); GI50 (MCF7): > 100 µM (inactive); GI50 (OVCAR-8): > 100 µM (inactive); GI50 (HCT-116): > 100 µM (inactive); GI50 (SK-MEL-5): > 100 µM (inactive); GI50 (RXF 393): > 100 µM (inactive); GI50 (HCT-15): > 100 µM; GI50 (UO-31): > 100 µM (inactive); GI50 (HOP-92): > 100 µM (inactive); GI50 (K562): > 100 µM (inactive); GI50 (MDA-MB-435): > 100 µM (inactive); GI50 (NCI/ADR-RES): > 100 µM (inactive); GI50 (M14): > 100 µM (inactive); GI50 (HCC 2998): > 100 µM (inactive); GI50 (SW-620): > 100 µM (inactive); GI50 (DU-145): > 100 µM (inactive); GI50 (HL-60): > 100 µM (inactive); GI50 (A549): > 100 µM (inactive); GI50 (OVCAR-3): > 100 µM (inactive); GI50 (UACC-257): > 100 µM (inactive); GI50 (LOX IMVI): > 100 µM (inactive); GI50 (NCI-H460): > 100 µM (inactive); GI50 (NCI-H522): > 100 µM (inactive); GI50 (Malme-3M): > 100 µM (inactive); GI50 (Hs-578T): > 100 µM (inactive); GI50 (OVCAR-5): > 100 µM (inactive); GI50 (786-0): > 100 µM (inactive); GI50 (SF-268): > 100 µM (inactive); GI50 (KM12): > 100 µM (inactive); GI50 (PC-3): > 100 µM (inactive); GI50 (NCI-H226): > 100 µM (inactive); GI50 (IGROV-1): > 100 µM (inactive); GI50 (SN12C): > 100 µM (inactive); GI50 (HOP-62): > 100 µM (inactive); GI50 (COLO 205): > 100 µM (inactive)

Q: For CN(C)CCOC1(Cc2ccc(Cl)cc2Cl)CCC(C(C)(C)C)CC1 (stereo not drawn), which GI50 (OVCAR-4) is on record?
A: Its GI50 is 2.42 µM (inactive).

Q: And the GI50 (MOLT-4)?
A: Its GI50 is 1.85 µM (inactive).

Q: And the GI50 (CAKI-1)?
A: Its GI50 is 15.9 µM (inactive).

Q: And the GI50 (SF-539)?
A: Its GI50 is 2.02 µM (inactive).

Q: And the GI50 (ACHN)?
A: The GI50 was 2.27 µM (inactive).

Q: And the GI50 (UACC-62)?
A: The GI50 was 7.23 µM (inactive).

Q: And the GI50 (A498)?
A: Its GI50 is 1.83 µM (inactive).

Q: And the GI50 (SK-MEL-2)?
A: Its GI50 is 1.16 µM (inactive).

Q: What about the GI50 (MDA-MB-231) of the same molecule?
A: Its GI50 is 1.77 µM (inactive).

Q: What about the GI50 (TK-10) of the same molecule?
A: The GI50 was 1.26 µM (inactive).

Q: And the GI50 (CCRF-CEM)?
A: Its GI50 is 1.88 µM (inactive).

Q: What about the GI50 (SK-OV-3) of the same molecule?
A: The GI50 was 10.5 µM (inactive).

Q: And the GI50 (SNB-75)?
A: Its GI50 is 4.27 µM (inactive).

Q: What about the GI50 (SK-MEL-28) of the same molecule?
A: The GI50 was 1.47 µM (inactive).

Q: What about the GI50 (HT-29) of the same molecule?
A: Its GI50 is 1.43 µM (inactive).

Q: And the GI50 (SF-295)?
A: Its GI50 is 2.09 µM (inactive).

Q: And the GI50 (SNB-19)?
A: The GI50 was 2.22 µM (inactive).

Q: What about the GI50 (RPMI-8226) of the same molecule?
A: The GI50 was 1.6 µM (inactive).

Q: And the GI50 (SR)?
A: Its GI50 is 0.0266 µM (active).

Q: And the GI50 (U-251)?
A: The GI50 was 1.88 µM (inactive).

Q: What about the GI50 (NCI-H23) of the same molecule?
A: The GI50 was 1.91 µM (inactive).

Q: And the GI50 (MCF7)?
A: The GI50 was 2.19 µM (inactive).

Q: What about the GI50 (OVCAR-8) of the same molecule?
A: Its GI50 is 1.63 µM (inactive).

Q: And the GI50 (HCT-116)?
A: Its GI50 is 1.95 µM (inactive).

Q: What about the GI50 (SK-MEL-5) of the same molecule?
A: The GI50 was 2.36 µM (inactive).

Q: What about the GI50 (RXF 393) of the same molecule?
A: The GI50 was 1.97 µM (inactive).

Q: And the GI50 (K562)?
A: The GI50 was 1.69 µM (inactive).

Q: And the GI50 (MDA-MB-435)?
A: Its GI50 is 1.64 µM (inactive).

Q: What about the GI50 (NCI/ADR-RES) of the same molecule?
A: The GI50 was 1.47 µM (inactive).

Q: And the GI50 (M14)?
A: Its GI50 is 1.54 µM (inactive).

Q: What about the GI50 (HCC 2998) of the same molecule?
A: Its GI50 is 1.57 µM (inactive).

Q: And the GI50 (SW-620)?
A: Its GI50 is 2.4 µM (inactive).

Q: What about the GI50 (A549) of the same molecule?
A: The GI50 was 2.23 µM (inactive).

Q: What about the GI50 (OVCAR-3) of the same molecule?
A: Its GI50 is 2.42 µM (inactive).

Q: What about the GI50 (UACC-257) of the same molecule?
A: Its GI50 is 1.11 µM (active).

Q: What about the GI50 (LOX IMVI) of the same molecule?
A: The GI50 was 1.78 µM (inactive).

Q: And the GI50 (NCI-H460)?
A: The GI50 was < 0.01 µM (active).

Q: What about the GI50 (NCI-H522) of the same molecule?
A: Its GI50 is 2 µM (inactive).

Q: What about the GI50 (Malme-3M) of the same molecule?
A: Its GI50 is 1.73 µM (inactive).

Q: And the GI50 (Hs-578T)?
A: The GI50 was 2.4 µM (inactive).

Q: And the GI50 (OVCAR-5)?
A: Its GI50 is 1.86 µM (inactive).

Q: What about the GI50 (786-0) of the same molecule?
A: The GI50 was 1.58 µM (inactive).

Q: And the GI50 (SF-268)?
A: The GI50 was 3.01 µM (inactive).

Q: What about the GI50 (KM12) of the same molecule?
A: The GI50 was 1.72 µM (inactive).

Q: And the GI50 (PC-3)?
A: The GI50 was 1.68 µM (inactive).

Q: And the GI50 (IGROV-1)?
A: Its GI50 is 1.83 µM (inactive).

Q: And the GI50 (SN12C)?
A: The GI50 was 1.73 µM (inactive).

Q: And the GI50 (HOP-62)?
A: The GI50 was 1.84 µM (inactive).

Q: What about the GI50 (COLO 205) of the same molecule?
A: The GI50 was 1.56 µM (inactive).

Q: Which GI50 (SK-OV-3) does the source give for COC(=O)C1=COC(C)C2CN3CCc4c([nH]c5ccccc45)C3CC12 (stereo not drawn) here?
A: The GI50 was 58.7 µM (inactive).

Q: What about the GI50 (SNB-19) of the same molecule?
A: Its GI50 is 84.5 µM (inactive).

Q: And the GI50 (MDA-MB-435)?
A: Its GI50 is 52.1 µM (inactive).

Q: And the GI50 (Hs-578T)?
A: Its GI50 is 49 µM (inactive) and 26 µM (inactive).

Q: And the GI50 (OVCAR-5)?
A: Its GI50 is > 100 µM (inactive).

Q: What about the GI50 (SF-268) of the same molecule?
A: The GI50 was 54.1 µM (inactive).

Q: And the GI50 (HOP-62)?
A: Its GI50 is > 100 µM (inactive) and 55.1 µM (inactive).

Reference: ChEMBL document CHEMBL1201862, “PubChem BioAssay data set” (2004)
